Assay results as given in US8389544B2, “Isoquinolone compounds as subtype-selective agonists for melatonin receptors MT1 and MT2” (The Hong Kong University of Science and Technology, priority 2007, dated 2013).
Read-outs that look alike come from different tables or passages of the source.

What was measured:
MT1 receptor = MT1 receptor (Homo sapiens, UniProt P48039); test: CRE-Luc (luciferase reporter gene) assay, MT1; format: cell-based; set-up: expressed in transfected cells; settings: HEK 293-pCREluc cells with MT1; inhibition of forskolin response
Chain of MT1 receptor (P48039 whole entry): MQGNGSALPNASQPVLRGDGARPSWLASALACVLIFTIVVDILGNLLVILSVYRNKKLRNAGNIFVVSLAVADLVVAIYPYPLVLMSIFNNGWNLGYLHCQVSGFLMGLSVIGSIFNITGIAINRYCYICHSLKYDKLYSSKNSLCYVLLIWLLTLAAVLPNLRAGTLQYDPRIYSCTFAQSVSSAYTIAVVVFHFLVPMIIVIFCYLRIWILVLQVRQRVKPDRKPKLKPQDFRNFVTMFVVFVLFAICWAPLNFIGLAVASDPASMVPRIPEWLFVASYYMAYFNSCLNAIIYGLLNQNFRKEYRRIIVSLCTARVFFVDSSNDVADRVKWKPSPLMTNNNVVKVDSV
Description: The luciferase reporter gene assay offers another way to measure melatonin receptor activation. Cells expressing cAMP-responsive element-driven luciferase reporter gene (293-pCREluc) and either the MT1 or MT2 receptor are treated with forskolin (a substance which stimulates cAMP production as well as the subsequent luciferase gene expression) alone or with a novel isoquinolone compound. As melatonin receptor activation inhibits cAMP production, any suppression in the expression of luciferase leads to a decrease in enzymatic activities and a reduction in the amount of luminescence signal generated.
The luciferase assay, a reporter gene assay, was performed to confirm the ability of the invention to activate the melatonin receptors. Prior to the assay, HEK (human embryonic kidney) 293 cells are stably transfected with cAMP-responsive element-driven luciferase reporter gene (293-pCREluc) and cDNAs encoding MT1 or MT2 receptors. The cells are then exposed to the novel isoquinolone compounds, after which the substrate luciferin is added and the resulting luminescence measured.
Prior to the assay human embryonic kidney (HEK) 293 cells (CRL-1573, ATCC) is maintained at 37° C. in minimum essential medium (MEM) supplemented with 10% fetal bovine serum (FBS), 100 units/ml penicillin and 100 μg/ml streptomycin in a humidified atmosphere containing 5% CO2. Human embryonic kidney 293 cells stably transfected with cAMP-responsive element-driven luciferase reporter gene (293-pCREluc) are established and maintained in growth medium supplemented with 300 μg/ml G418 sulphate.
For luciferase assays, HEK-293 cells stably expressing pCRE-luciferase are seeded at a density of 15,000 cells/well into 96 well plates. Transfection is carried out using Lipofectamine Plus® reagent at 0.2 μl of both Plus and lipofectamine reagents with 50 ng cDNAs encoding MT1 or MT2 receptors per well. After a 3 hour transfection period at 37° C., 50 μl of DMEM with 20% fetal calf serum (FCS) is added into the wells and the plate is incubated at 37° C. for 48 h prior to 24 hour serum starvation. […]
Cells are harvested by replacing medium in the well by 50 μl luciferase lysis buffer. The Berthold microplate luminometer is maintained at 25° C. throughout the assay. Injector M connected to an empty tube and P connected to the drug tube are set to inject 25 μl of luciferin into appropriate wells. A 1.6 second delay time followed by a 1 second measuring time period is assigned to injector M, whereas injector P is measured for 10 seconds after luciferase substrate is introduced into the well. Results are expressed as relative luminescent units (RLU). Where indicated, agonist-induced activity is expressed as a percentage of the RLU obtained with forskolin.

MT2 receptor = molecular target: T1, MT2 receptor (Homo sapiens, UniProt P49286); test: FLIPR Ca2+ mobilization assay, MT2; format: cell-based; set-up: expressed in transfected cells; host or cells: COS-7 (monkey kidney fibroblast); settings: for % Response of 2-IMT: relative to 2-IMT response; for agonist character / receptor subtype selectivity in words: FLIPR results, MT1 versus MT2; for Emax: read-out: % Response of 2-IMT
T1 sequence (P49286 1-362): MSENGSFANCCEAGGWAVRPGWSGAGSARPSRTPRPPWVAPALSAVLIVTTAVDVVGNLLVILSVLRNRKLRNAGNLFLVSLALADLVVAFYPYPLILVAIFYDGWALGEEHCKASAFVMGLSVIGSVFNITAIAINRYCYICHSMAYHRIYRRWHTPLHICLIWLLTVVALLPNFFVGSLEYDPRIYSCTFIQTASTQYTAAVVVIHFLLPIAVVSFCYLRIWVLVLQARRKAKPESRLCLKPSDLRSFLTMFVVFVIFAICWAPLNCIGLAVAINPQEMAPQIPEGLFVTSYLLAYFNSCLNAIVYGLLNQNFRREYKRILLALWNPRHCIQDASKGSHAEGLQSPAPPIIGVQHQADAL
Description: 1. FLIPR Ca^2+ Mobilization Assay
This assay indicates the ability of the novel compounds to activate MT1 and MT2 receptors by measuring downstream events of the activated receptor, in this case intracellular calcium mobilization.
1. Intracellular Ca^2+ Mobilization Assay Using Fluorometric Imaging Plate Reader (FLIPR®)
An intracellular calcium mobilization assay was performed to screen the isoquinolone compounds against the two melatonin receptor subtypes, MT1 and MT2 on the fluorometric imaging plate reader (FLIPR®). In order to facilitate the screening process in a high-throughput manner, chimeric G proteins with the ability to couple to a range of GPCR as well as activate intracellular Ca^2+ were employed. The melatonin receptor subtype (either MT1 or MT2) was co-expressed with the G-protein chimeras in COS-7 (monkey kidney fibroblast) cells. During the assay, cells were exposed to the novel isoquinolone compounds and the corresponding change in fluorescence was measured. Both single point and dose-dependant assays were performed for each isoquinolone compound and based on the latter a dose response curve was generated and the corresponding EC50 for each receptor subtype determined.
Specifically, COS-7 cells were seeded at a density of 20,000 cells/well into 96-well plates designed for FLIPR assays, using Opti-MEM with 10% FCS at a volume of 100 μl/well. Transfection was carried out using Lipofectamine 2000® reagent. In each well, 0.2 μg of the GPCR and G protein cDNA were diluted with 25 μl of Opti-MEM and 0.2 μl of Lipofectamine 2000® was diluted with another 25 μl of Opti-MEM. They were added to appropriate wells after the two components were mixed for 20 min.
After 48 hours of incubation post-transfection, 50 μl of the transfection medium was removed from each well followed by the labelling of transfected cells with 100 μl of 2 μM Fluo-4 in calcium containing HBSS (Hank's balanced salt solution) with 20 mM HEPES (N-[2-hydroxyethyl]piperazine—N′-[2-ethanesulfonic acid]; pH 7.5) and 2.5 mM probenecid (anion exchanger inhibitor, freshly prepared) for 1 hour at 37° C. 70 μl of 3× drugs (isoquinolinone compounds encompassing the invention) were prepared and aliquoted into the corresponding wells in the V-well drug plate. Changes in fluorescence were detected in the FLIPR 96 with an excitation wavelength of 488 nm. The background fluorescence was adjusted to the range of 8,000 to 12,000 units by altering the laser power and exposure time (typically 0.4 W and 0.4 sec, respectively) for the FLIPR setup. 50 μl of each agonist solution was added to the corresponding wells and the fluorescent emission (between 510 and 560 nm) was monitored for 3 min. Results were expressed as change in fluorescent intensity units (FIU). Concentration-response curves were generated by determining the maximal change in FIU of each data set. Numerical analysis of the statistics and EC50 (median effective concentration) values were performed on GraphPad Prism version 3.03.
Then the intracellular Ca^2+ mobilization assays using the Fluorometric Imaging Plate Reader (FLIPR®) were performed as described above.

[1] = Table 1, MT2 in COS-7 cells with chimeric G protein, log value, negative, NSR = no significant response
[2] = Table 2, MT2, log value, negative
[3] = Table 1, MT2 in COS-7 cells with chimeric G protein, log value, negative, NSR = no significant response, read-out: Log(EC50) ± SEM (converted)

SMILES | CRE-Luc Assay MT1 % Inh ± SEM of 1 μM Fsk (MT1 receptor) [%] | % Response of 2-IMT (MT2 receptor; Table 1, MT2) [%] | Log(EC50) ± SEM (MT2 receptor; [1]) | % Resp of 2-IMT (MT2 receptor; Table 2, MT2) [%] | logEC50 ± SEM (MT2 receptor; [2]) | EC50 (MT2 receptor; Table 2, MT2, read-out: EC50) [nM] | agonist character / receptor subtype selectivity in words (MT2 receptor) | EC50 (MT2 receptor; [3]) [nM] | Emax (MT2 receptor) [%] | activity / efficacy at MT2 compared to 2-IMT (MT2 receptor) [%] | EC50 (MT2 receptor; read-out: EC50 MT2) [nM]
Cn1ccc2cc(OC(=O)c3ccccc3)c(OC(=O)c3ccccc3)cc2c1=O [IS039] | 73.0 ± 5.0 | 61.0 | −8.64 ± 0.20 | 61.0 | −8.64 ± 0.20 | 2.31 | – | – | – | – | –
COc1cc(COc2cc3ccn(C)c(=O)c3cc2OC)cc(OC)c1 [IS042] | 73.9 ± 7.8 | – | – | 84.5 | – | 0.379 | very potent full agonists with high MT2 selectivity | 0.38 | 84.5 | – | –
COc1cccc(COc2cc3ccn(C)c(=O)c3cc2OC)c1 [IS044] | 82.3 ± 6.0 | 94.9 | −8.42 ± 0.25 | 94.9 | −8.42 ± 0.25 | 3.8 | very potent full agonists with high MT2 selectivity | – | – | – | –
COc1cccc(COc2cc3c(=O)n(C)ccc3cc2OC)c1 [IS521] | 84.2 ± 5.5 | – | – | 98.9 | – | 11.4 | very potent full agonists with high MT2 selectivity | 11.5 | 98.9 | – | –
COc1cc(COc2cc3c(=O)n(C)ccc3cc2OC)cc(OC)c1 [IS523] | 70.4 ± 5.6 | – | – | 61.0 | – | 45.4 | very potent full agonists with high MT2 selectivity | 45.7 | 61 | – | –
COc1cc2ccn(C)c(=O)c2cc1OCc1ccc(C(C)(C)C)cc1 [IS526] | 36.2 ± 11.8 | 88.6 | −5.42 ± 0.76 | 88.6 | −5.42 ± 0.76 | 3770 | – | – | – | – | –
COc1cccc(COc2c(OC)ccc3c(=O)n(C)ccc23)c1 [IS527] | 82.4 ± 6.4 | – | – | 65.9 | – | 5.78 | – | – | 65.9 | ~65 | 5.78
COc1cc(COc2c(OC)ccc3c(=O)n(C)ccc23)cc(OC)c1 [IS528] | 69.7 ± 10.1 | 64.8 | −9.43 ± 0.75 | 64.8 | −9.43 ± 0.75 | 0.369 | – | – | – | ~65 | 0.37
COc1ccc2c(=O)n(C)ccc2c1OCc1ccc(C)cc1 [IS529] | 67.7 ± 5.4 | – | – | 53.6 | – | 65.2 | activated MT2 only | 64.6 | 53.6 | – | –
